# How the values were obtained:
# Experiment in all cases: Kinase profiling in a biochemical assay panel (mobility shift assays and ELISA), %-inhibition at 1 μM; selectivity entropy
# [1] = target: panel of more than 300 wild-type and mutant kinases (313 kinase panel) (Homo sapiens, UniProt Q9Y6M4)
# [2] = target: panel of more than 300 wild-type and mutant kinases (313 kinase panel) (Homo sapiens, UniProt P14616)
# [3] = target: panel of more than 300 wild-type and mutant kinases (313 kinase panel) (Homo sapiens, UniProt P49840)
# [4] = target: T1, panel of more than 300 wild-type and mutant kinases (313 kinase panel) (Homo sapiens, UniProt Q14164)
# T1 sequence (Q14164 1-716): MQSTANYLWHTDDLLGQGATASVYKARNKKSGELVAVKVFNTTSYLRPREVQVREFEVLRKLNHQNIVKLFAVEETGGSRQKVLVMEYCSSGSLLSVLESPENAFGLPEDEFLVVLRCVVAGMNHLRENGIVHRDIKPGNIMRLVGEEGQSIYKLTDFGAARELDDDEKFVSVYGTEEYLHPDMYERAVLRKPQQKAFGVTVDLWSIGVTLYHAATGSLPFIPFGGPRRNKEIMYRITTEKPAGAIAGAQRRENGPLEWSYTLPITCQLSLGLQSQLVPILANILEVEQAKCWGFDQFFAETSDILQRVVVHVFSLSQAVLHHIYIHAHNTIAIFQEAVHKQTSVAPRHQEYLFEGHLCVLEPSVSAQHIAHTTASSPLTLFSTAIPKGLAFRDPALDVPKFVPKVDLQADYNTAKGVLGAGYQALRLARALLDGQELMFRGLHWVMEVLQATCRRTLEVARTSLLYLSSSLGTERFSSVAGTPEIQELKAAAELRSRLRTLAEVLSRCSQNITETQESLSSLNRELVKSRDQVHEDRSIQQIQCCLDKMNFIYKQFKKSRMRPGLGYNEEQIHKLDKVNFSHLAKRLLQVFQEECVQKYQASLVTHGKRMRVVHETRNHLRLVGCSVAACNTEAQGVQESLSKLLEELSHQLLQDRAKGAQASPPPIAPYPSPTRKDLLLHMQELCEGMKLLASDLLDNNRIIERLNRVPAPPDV
# [5] = target: T2, panel of more than 300 wild-type and mutant kinases (313 kinase panel) (Homo sapiens, UniProt P54753)
# T2 sequence (P54753 34-998): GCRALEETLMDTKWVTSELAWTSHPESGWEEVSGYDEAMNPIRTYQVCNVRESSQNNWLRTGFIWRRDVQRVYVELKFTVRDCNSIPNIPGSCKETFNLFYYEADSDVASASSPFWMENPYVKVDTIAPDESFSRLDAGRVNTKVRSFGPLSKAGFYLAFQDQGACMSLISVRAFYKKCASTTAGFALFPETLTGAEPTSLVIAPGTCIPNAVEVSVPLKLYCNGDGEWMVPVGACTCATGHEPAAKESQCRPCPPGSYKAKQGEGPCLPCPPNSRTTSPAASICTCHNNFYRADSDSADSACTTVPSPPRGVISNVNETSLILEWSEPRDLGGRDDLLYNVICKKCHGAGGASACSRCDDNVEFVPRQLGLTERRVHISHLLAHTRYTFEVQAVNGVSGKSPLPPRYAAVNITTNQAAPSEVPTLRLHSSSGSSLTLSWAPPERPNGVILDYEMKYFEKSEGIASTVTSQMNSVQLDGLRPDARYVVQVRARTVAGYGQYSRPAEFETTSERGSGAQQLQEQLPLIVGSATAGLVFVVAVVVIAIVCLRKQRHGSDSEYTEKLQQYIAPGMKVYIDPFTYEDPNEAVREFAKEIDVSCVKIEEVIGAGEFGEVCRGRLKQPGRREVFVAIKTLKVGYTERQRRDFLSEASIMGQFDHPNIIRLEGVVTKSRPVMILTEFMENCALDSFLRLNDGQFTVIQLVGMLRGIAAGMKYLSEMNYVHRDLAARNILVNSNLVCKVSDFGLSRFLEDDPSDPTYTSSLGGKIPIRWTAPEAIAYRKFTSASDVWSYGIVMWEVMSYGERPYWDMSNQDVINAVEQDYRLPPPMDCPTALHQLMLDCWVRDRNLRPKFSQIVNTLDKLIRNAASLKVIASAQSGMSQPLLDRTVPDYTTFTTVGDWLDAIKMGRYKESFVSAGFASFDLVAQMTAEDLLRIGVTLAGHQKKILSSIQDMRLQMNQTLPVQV
# [6] = target: T3, panel of more than 300 wild-type and mutant kinases (313 kinase panel) (Homo sapiens, UniProt O14733)
# T3 sequence (O14733 1-419): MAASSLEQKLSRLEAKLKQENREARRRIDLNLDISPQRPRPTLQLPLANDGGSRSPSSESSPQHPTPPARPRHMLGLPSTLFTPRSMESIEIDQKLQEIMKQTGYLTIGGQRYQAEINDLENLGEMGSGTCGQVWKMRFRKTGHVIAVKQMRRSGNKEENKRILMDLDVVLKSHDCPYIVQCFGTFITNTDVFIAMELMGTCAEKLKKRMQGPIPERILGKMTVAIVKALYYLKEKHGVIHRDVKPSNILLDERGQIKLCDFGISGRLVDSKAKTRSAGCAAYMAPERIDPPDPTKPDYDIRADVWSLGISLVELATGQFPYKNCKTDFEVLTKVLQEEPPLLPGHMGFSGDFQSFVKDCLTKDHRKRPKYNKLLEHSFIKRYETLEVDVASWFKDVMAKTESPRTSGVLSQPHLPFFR
# [7] = target: panel of more than 300 wild-type and mutant kinases (313 kinase panel) (Homo sapiens, UniProt P53355)
# [8] = target: panel of more than 300 wild-type and mutant kinases (313 kinase panel) (Homo sapiens, UniProt Q02750)
# [9] = kinase MAP2K7, compound at 1 μM
# [10] = kinase MAP2K1, compound at 1 μM
# Sequence of panel of more than 300 wild-type and mutant kinases (313 kinase panel) (Homo sapiens, UniProt P14616) (P14616 27-1297, change not shown): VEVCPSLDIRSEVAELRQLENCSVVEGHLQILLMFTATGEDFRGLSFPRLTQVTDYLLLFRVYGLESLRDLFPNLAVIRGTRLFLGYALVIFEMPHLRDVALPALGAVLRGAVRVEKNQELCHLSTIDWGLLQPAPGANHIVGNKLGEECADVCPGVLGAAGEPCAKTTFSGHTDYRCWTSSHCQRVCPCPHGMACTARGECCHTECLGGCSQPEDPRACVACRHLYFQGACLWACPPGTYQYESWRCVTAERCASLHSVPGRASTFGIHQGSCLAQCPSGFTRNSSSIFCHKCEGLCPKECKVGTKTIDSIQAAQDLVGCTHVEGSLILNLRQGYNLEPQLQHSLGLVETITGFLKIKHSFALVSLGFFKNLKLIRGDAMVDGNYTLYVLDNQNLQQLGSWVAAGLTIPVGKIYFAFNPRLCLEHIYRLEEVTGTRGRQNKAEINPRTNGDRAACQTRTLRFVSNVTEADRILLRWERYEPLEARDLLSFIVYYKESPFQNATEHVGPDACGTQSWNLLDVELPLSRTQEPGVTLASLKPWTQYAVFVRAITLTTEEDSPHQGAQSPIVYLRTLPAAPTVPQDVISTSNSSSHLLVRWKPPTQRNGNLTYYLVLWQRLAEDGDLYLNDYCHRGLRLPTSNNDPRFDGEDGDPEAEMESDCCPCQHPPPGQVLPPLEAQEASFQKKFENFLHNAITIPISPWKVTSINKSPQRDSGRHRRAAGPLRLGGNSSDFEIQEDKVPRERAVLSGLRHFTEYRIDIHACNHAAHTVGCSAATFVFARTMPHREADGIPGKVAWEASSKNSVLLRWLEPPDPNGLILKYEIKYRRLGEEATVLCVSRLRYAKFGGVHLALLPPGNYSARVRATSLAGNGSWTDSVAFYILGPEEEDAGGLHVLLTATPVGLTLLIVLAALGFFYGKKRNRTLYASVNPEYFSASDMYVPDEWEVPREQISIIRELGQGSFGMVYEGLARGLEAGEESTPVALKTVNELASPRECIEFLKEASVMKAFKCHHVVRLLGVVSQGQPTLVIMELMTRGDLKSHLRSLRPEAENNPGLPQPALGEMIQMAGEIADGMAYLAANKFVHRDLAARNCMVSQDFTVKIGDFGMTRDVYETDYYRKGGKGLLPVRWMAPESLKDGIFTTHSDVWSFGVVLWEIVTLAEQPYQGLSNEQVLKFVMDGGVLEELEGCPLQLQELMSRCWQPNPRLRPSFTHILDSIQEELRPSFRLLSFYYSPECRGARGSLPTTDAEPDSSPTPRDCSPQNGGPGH
# Sequence of panel of more than 300 wild-type and mutant kinases (313 kinase panel) (Homo sapiens, UniProt Q9Y6M4) (Q9Y6M4 whole entry, change not shown): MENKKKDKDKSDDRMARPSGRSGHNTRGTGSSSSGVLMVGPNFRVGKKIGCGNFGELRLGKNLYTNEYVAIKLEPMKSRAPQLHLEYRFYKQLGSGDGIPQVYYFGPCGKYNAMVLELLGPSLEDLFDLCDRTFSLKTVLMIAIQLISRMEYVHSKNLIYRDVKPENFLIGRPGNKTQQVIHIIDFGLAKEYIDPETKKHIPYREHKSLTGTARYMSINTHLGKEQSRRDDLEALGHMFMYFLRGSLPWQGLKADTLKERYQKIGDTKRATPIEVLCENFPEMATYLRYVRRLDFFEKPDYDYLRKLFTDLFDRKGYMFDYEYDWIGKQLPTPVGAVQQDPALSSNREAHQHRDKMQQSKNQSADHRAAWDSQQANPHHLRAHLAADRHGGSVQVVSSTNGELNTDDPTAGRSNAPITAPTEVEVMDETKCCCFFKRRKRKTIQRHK
SMILES,"%-inhibition, CK1γ3 ([1]; kinase CK1γ3, 1 μM compound)","%-inhibition of IRR ([2]; kinase IRR, compound at 1 μM)",%-inhibition of GSK3α ([3]; 1 µM),"%-inhibition of IKKε ([4]; kinase IKKε, compound at 1 μM)","%-inhibition of EPHB3 ([5]; kinase EPHB3, compound at 1 μM)","%-inhibition of MAP2K7 [6, 9]","%-inhibition of DAPK1 ([7]; kinase DAPK1, compound at 1 μM)","%-inhibition of MAP2K1 [8, 10]","%-inhibition of GSK3α ([3]; kinase GSK3α, compound at 1 μM)",%-inhibition of EPHB3 ([5]; 1 µM),"%-inhibition, CK1γ3 ([1]; 1 µM)",%-inhibition of MAP2K7 ([6]; 1 µM),%-inhibition of IRR ([2]; 1 µM),%-inhibition of DAPK1 ([7]; 1 µM),%-inhibition of MAP2K1 ([8]; 1 µM),%-inhibition of IKKε ([4]; 1 µM)
COc1cc(Nc2c(C#N)cnc3cc(OCCCN4CCN(C)CC4)c(OC)cc23)c(Cl)cc1Cl [bosutinib],3.3%,57%,9%,4.39%,–,–,–,–,–,–,–,–,–,–,–,–
COc1cc2nccc(Oc3ccc(NC(=O)C4(C(=O)Nc5ccc(F)cc5)CC4)cc3)c2cc1OC [cabozantinib],5%,66%,–,-7.58%,85%,10%,-10%,82%,-10%,–,–,–,–,–,–,–
C[C@@H](Oc1cc(-c2cnn(C3CCNCC3)c2)cnc1N)c1c(Cl)ccc(F)c1Cl [crizotinib],4%,–,–,7.49%,5%,4.36%,-4%,0.819%,-2.56%,–,–,–,–,–,–,–
CC(C)(C)c1nc(-c2cccc(NS(=O)(=O)c3c(F)cccc3F)c2F)c(-c2ccnc(N)n2)s1 [dabrafenib],–,10%,–,15%,3%,-4.55%,-0.54%,–,–,–,–,–,–,–,–,–
Cc1nc(Nc2ncc(C(=O)Nc3c(C)cccc3Cl)s2)cc(N2CCN(CCO)CC2)n1 [dasatinib],–,-16%,–,–,–,-7%,–,–,–,–,–,–,–,–,–,–
C#Cc1cccc(Nc2ncnc3cc(OCCOC)c(OCCOC)cc23)c1 [erlotinib],–,–,-4%,–,–,–,–,–,–,5%,-0.719%,-5%,-12%,1.08%,26%,5%
CO[C@H]1C[C@@H]2CC[C@@H](C)[C@@](O)(O2)C(=O)C(=O)N2CCCC[C@H]2C(=O)O[C@H]([C@H](C)C[C@@H]2CC[C@@H](OCCO)[C@H](OC)C2)CC(=O)[C@H](C)/C=C(\C)[C@@H](O)[C@@H](OC)C(=O)[C@H](C)C[C@H](C)/C=C/C=C/C=C/1C [everolimus],-13%,0.808%,–,-10%,-5%,11%,-15%,7.5%,-14%,–,–,–,–,–,–,–
O=S(=O)(c1cccc2cnccc12)N1CCCNCC1 [fasudil],-4%,0.15%,–,-1.77%,-4%,-3.26%,10%,5.3%,0.911%,–,–,–,–,–,–,–
CS(=O)(=O)CCNCc1ccc(-c2ccc3ncnc(Nc4ccc(OCc5cccc(F)c5)c(Cl)c4)c3c2)o1 [lapatinib],–,-4%,–,-5%,5%,-4%,–,21%,-8%,–,-0.863%,–,–,-6%,–,–
Cc1cn(-c2cc(NC(=O)c3ccc(C)c(Nc4nccc(-c5cccnc5)n4)c3)cc(C(F)(F)F)c2)cn1 [nilotinib],–,–,–,-2.79%,92%,-24%,-11%,-8%,-0.491%,–,-10%,–,-0.717%,–,–,–
Cc1ccc(C(=O)Nc2ccc(CN3CCN(C)CC3)c(C(F)(F)F)c2)cc1C#Cc1cnc2cccnn12 [ponatinib],4.6%,–,–,-9%,101%,–,–,–,–,–,–,–,–,–,–,–
CCN(CC)CCNC(=O)c1c(C)[nH]c(/C=C2\C(=O)Nc3ccc(F)cc32)c1C [sunitinib],–,–,–,–,–,–,–,89%,–,–,–,–,–,–,–,–
CC(=O)Nc1cccc(-n2c(=O)n(C3CC3)c(=O)c3c(Nc4ccc(I)cc4F)n(C)c(=O)c(C)c32)c1 [trametinib],–,–,1.59%,-3.63%,–,-2.32%,-6%,99%,–,-5.47%,–,–,1.35%,–,–,–
